The IC50 is the concentration that gives 50% inhibition.

Read-outs that look alike come from different tables or passages of the source.

The values that follow come from patent publication US20140107109A1, “AMINO-DIHYDROTHIAZINE AND AMINO-DIOXIDO DIHYDROTHIAZINE COMPOUNDS AS BETA-SECRETASE ANTAGONISTS AND METHODS OF USE” (Amgen Inc., priority 2012, published 2014).

In one experiment the target is T1, Cathepsin D (Cat D) (Homo sapiens, UniProt P07339).
T1 construct: Recombinant Cat D was expressed in CHO cells; made in house; host or cells: CHO cells
T1 sequence (P07339 65-412, species assumed): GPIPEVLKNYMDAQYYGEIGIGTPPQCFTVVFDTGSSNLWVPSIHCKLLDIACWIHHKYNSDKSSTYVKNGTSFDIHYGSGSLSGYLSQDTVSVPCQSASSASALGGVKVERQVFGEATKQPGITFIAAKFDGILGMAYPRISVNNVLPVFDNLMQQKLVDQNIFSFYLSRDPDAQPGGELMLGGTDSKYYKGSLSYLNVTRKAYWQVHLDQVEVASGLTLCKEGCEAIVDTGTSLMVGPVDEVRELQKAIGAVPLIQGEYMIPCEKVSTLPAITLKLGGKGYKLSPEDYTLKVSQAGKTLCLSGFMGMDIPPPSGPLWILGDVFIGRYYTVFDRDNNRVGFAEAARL
Briefly: In vitro enzymatic Cathepsin D (Cat D) FRET assay. The conditions noted are these: read-out: CatD IC50. It counts as biochemical. The procedure, abridged: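 FRET read-out: a fluorophore/quencher-labelled peptide substrate is cleaved by 9 nM Cat D (recombinant, CHO-expressed) following a one-hour preincubation with inhibitor dilutions in DMSO. Tris buffer added to neutralize pH ends the reaction before fluorescence measurement.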

For experiment [1], the target named is Beta Secretase enzyme (BACE1) (Homo sapiens, UniProt P56817). Briefly: In vitro enzymatic BACE FRET assay. In kind it is biochemical. The conditions noted are these: read-out: BACE1 FRET assay IC50. The procedure, abridged: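 Readout: dequenched fluorescence (ex 488 nm/[…]) after neutralizing with Tris buffer. Reactions, begun by adding 50 nM quenched peptide substrate spanning the BACE cleavage site, were incubated one hour at pH 4.2 in 0.05 M acetate with 100 uM genapol and 10% final DMSO.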
Chain of Beta Secretase enzyme (BACE1) (P56817 46-501): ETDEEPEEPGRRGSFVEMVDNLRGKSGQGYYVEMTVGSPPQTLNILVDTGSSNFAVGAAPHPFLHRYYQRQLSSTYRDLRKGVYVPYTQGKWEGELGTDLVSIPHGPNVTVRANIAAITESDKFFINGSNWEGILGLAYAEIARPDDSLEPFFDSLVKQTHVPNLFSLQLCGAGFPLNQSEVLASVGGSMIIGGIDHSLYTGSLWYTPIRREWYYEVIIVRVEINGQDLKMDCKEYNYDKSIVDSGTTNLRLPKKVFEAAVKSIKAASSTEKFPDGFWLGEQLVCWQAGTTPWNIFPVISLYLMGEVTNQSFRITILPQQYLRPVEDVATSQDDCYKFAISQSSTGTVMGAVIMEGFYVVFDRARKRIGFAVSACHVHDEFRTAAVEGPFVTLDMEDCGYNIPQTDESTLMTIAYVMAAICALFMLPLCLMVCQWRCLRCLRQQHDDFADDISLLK

For experiment [2], the system named is Aβ40 in conditioned medium of cells stably expressing Amyloid Precursor Protein (APP). Briefly: In vitro BACE cell-based assay (HEK cell assay), Aβ40 sandwich ELISA. The conditions noted are these: Homo sapiens, HEK293. The procedure, abridged:
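Aβ40 in conditioned medium was quantified by time-resolved fluorescence sandwich ELISA (pAb40 capture 3 h at 4 °C, biotin-6E10 detection 2 h at 4 °C) after 24 h compound exposure of APP-expressing cells. Doses spanned 10 points from 100 μM or 10 μM top, 0.1% DMSO; IC50 was derived from percent of control.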
Background: An ELISA detects its analyte on a solid surface through an enzyme-linked reagent.

For the molecule `CC1(C)C(N)=N[C@](CF)(c2cc(NC(=O)c3cnc(OCC(F)F)cn3)ccc2F)CS1(=O)=O` [Example 364, N-(3-((3S)-5-amino-3-(fluoromethyl)-6,6-dimethyl-1,1-dioxido-3,6-dihydro-2H-1,4-thiazin-3-yl)-4-fluorophenyl)-5-(2,2-difluoroethoxy)-2-pyrazinecarboxamide], the IC50 on Cathepsin D (Cat D) turned out to be 858 µM; in experiment [1] (average IC50, enzyme assay), 0.0005 µM; in experiment [2] (average IC50, HEK cell assay) it was 0.0214 µM.

For the molecule `CC1(C)C(N)=N[C@](CF)(c2cc(NC(=O)c3cnc(OCCF)cn3)ccc2F)CS1(=O)=O` [Example 365, N-(3-((3S)-5-amino-3-(fluoromethyl)-6,6-dimethyl-1,1-dioxido-3,6-dihydro-2H-1,4-thiazin-3-yl)-4-fluorophenyl)-5-(2-fluoroethoxy)-2-pyrazinecarboxamide], the 50% inhibitory concentration (IC50) on Cathepsin D (Cat D) is above 400 µM; in experiment [1] (average IC50, enzyme assay), 0.00097 µM; in experiment [2] (average IC50, HEK cell assay), 0.0447 µM.

Take `Cc1cc(Cl)cnc1C(=O)Nc1ccc(F)c([C@]2(CF)CS(=O)(=O)C3(CCC3)C(N)=N2)c1` [Example 366, N-(3-((7S)-9-amino-7-(fluoromethyl)-5,5-dioxido-5-thia-8-azaspiro[3.5]non-8-en-7-yl)-4-fluorophenyl)-5-chloro-3-methyl-2-pyridinecarboxamide]: the IC50 at Cathepsin D (Cat D) was determined as 241 µM; in experiment [1] (average IC50, enzyme assay) it was 0.00079 µM; in experiment [2] (average IC50, HEK cell assay) it was 0.0141 µM.

Consider `Cc1c(C(=O)Nc2ccc(F)c([C@]3(CF)CS(=O)(=O)C4(CCC4)C(N)=N3)c2)nc2ccc(Cl)cn12` [Example 367, N-(3-((7S)-9-amino-7-(fluoromethyl)-5,5-dioxido-5-thia-8-azaspiro[3.5]non-8-en-7-yl)-4-fluorophenyl)-6-chloro-3-methylimidazo[1,2-a]pyridine-2-carboxamide], for which the IC50 at Cathepsin D (Cat D) is above 400 µM; in experiment [1] (average IC50, enzyme assay) it was 0.00507 µM; in experiment [2] (average IC50, HEK cell assay), 0.0137 µM.

Regarding `Cc1cc(C#N)cnc1C(=O)Nc1ccc(F)c([C@]2(CF)CS(=O)(=O)C3(CCC3)C(N)=N2)c1` [Example 368, N-(3-((7S)-9-amino-7-(fluoromethyl)-5,5-dioxido-5-thia-8-azaspiro[3.5]non-8-en-7-yl)-4-fluorophenyl)-5-cyano-3-methyl-2-pyridinecarboxamide], the IC50 was 222 µM at Cathepsin D (Cat D); 0.00064 µM in experiment [1] (average IC50, enzyme assay); 0.0046 µM in experiment [2] (average IC50, HEK cell assay).

Consider `Cc1cc(C(F)F)cnc1C(=O)Nc1ccc(F)c([C@]2(CF)CS(=O)(=O)C3(CCC3)C(N)=N2)c1` [Example 369, N-(3-((7S)-9-amino-7-(fluoromethyl)-5,5-dioxido-5-thia-8-azaspiro[3.5]non-8-en-7-yl)-4-fluorophenyl)-5-(difluoromethyl)-3-methyl-2-pyridinecarboxamide], for which the IC50 on Cathepsin D (Cat D) was found to be 233 µM; in experiment [1], 0.0014 µM; in experiment [2], 0.0123 µM.

As for `COCc1cc(Cl)cnc1C(=O)Nc1ccc(F)c([C@]2(CF)CS(=O)(=O)C3(CCC3)C(N)=N2)c1` [Example 370, N-(3-((7S)-9-amino-7-(fluoromethyl)-5,5-dioxido-5-thia-8-azaspiro[3.5]non-8-en-7-yl)-4-fluorophenyl)-5-chloro-3-(methoxymethyl)-2-pyridinecarboxamide], the IC50 was above 400 µM on Cathepsin D (Cat D), 0.00081 µM in experiment [1] and 0.0273 µM in experiment [2].

`Cc1cc(OCC2CC2)cnc1C(=O)Nc1ccc(F)c([C@]2(CF)CS(=O)(=O)C3(CCC3)C(N)=N2)c1` [Example 371, N-(3-((7S)-9-amino-7-(fluoromethyl)-5,5-dioxido-5-thia-8-azaspiro[3.5]non-8-en-7-yl)-4-fluorophenyl)-5-(cyclopropylmethoxy)-3-methyl-2-pyridinecarboxamide]: the values for the IC50 (on Cathepsin D (Cat D); in experiment [1]; in experiment [2]) were 391 µM, 0.00156 µM and 0.077 µM, respectively.

For `N#Cc1cnc(C(=O)Nc2ccc(F)c([C@]3(CF)CS(=O)(=O)C4(CCC4)C(N)=N3)c2)c(Cl)c1` [Example 372, N-(3-((7S)-9-amino-7-(fluoromethyl)-5,5-dioxido-5-thia-8-azaspiro[3.5]non-8-en-7-yl)-4-fluorophenyl)-3-chloro-5-cyano-2-pyridinecarboxamide], the IC50 was 367 µM on Cathepsin D (Cat D), 0.00072 µM in experiment [1] and 0.0071 µM in experiment [2].

As to `COc1cnc(C(=O)Nc2ccc(F)c([C@]3(CF)CS(=O)(=O)C4(CCC4)C(N)=N3)c2)c(C)c1` [Example 373, N-(3-((7S)-9-amino-7-(fluoromethyl)-5,5-dioxido-5-thia-8-azaspiro[3.5]non-8-en-7-yl)-4-fluorophenyl)-5-methoxy-3-methyl-2-pyridinecarboxamide], the IC50 worked out at 197 µM on Cathepsin D (Cat D), 0.00245 µM in experiment [1] and 0.0148 µM in experiment [2].

For the molecule `Cc1cc(OCC(F)(F)F)cnc1C(=O)Nc1ccc(F)c([C@]2(CF)CS(=O)(=O)C3(CCC3)C(N)=N2)c1` [Example 374, N-(3-((7S)-9-amino-7-(fluoromethyl)-5,5-dioxido-5-thia-8-azaspiro[3.5]non-8-en-7-yl)-4-fluorophenyl)-3-methyl-5-(2,2,2-trifluoroethoxy)-2-pyridinecarboxamide], the values for the IC50 (at Cathepsin D (Cat D); in experiment [1]; in experiment [2]) were 630 µM, 0.0011 µM and 0.0616 µM, respectively.

Regarding `COc1cc(Cl)cnc1C(=O)Nc1ccc(F)c([C@]2(CF)CS(=O)(=O)C3(CCC3)C(N)=N2)c1` [Example 375, N-(3-((7S)-9-amino-7-(fluoromethyl)-5,5-dioxido-5-thia-8-azaspiro[3.5]non-8-en-7-yl)-4-fluorophenyl)-5-chloro-3-methoxy-2-pyridinecarboxamide], the IC50 stood at 781 µM on Cathepsin D (Cat D), 0.0029 µM in experiment [1] and 0.0298 µM in experiment [2].

In the case of `CC1(C)C(N)=N[C@](CF)(c2cc(NC(=O)c3cnc(C(F)F)cn3)ccc2F)CS1(=O)=O` [Example 376, N-(3-((3S)-5-amino-3-(fluoromethyl)-6,6-dimethyl-1,1-dioxido-3,6-dihydro-2H-1,4-thiazin-3-yl)-4-fluorophenyl)-5-(difluoromethyl)-2-pyrazinecarboxamide], the figures for the IC50 (on Cathepsin D (Cat D); in experiment [1]; in experiment [2]) were 172 µM, 0.00223 µM and 0.0615 µM, respectively.

Regarding `COc1cnc(C(=O)Nc2ccc(F)c([C@]3(CF)CS(=O)(=O)C(C)(C)C(N)=N3)c2)c(C)c1` [Example 377, N-(3-((3S)-5-amino-3-(fluoromethyl)-6,6-dimethyl-1,1-dioxido-3,6-dihydro-2H-1,4-thiazin-3-yl)-4-fluorophenyl)-5-methoxy-3-methyl-2-pyridinecarboxamide], the IC50 came to 335 µM at Cathepsin D (Cat D), 0.003 µM in experiment [1] and 0.0098 µM in experiment [2].

As to `CC1(C)C(N)=N[C@](CF)(c2cc(NC(=O)c3ncc(F)cc3F)ccc2F)CS1(=O)=O` [Example 378, N-(3-((3S)-5-amino-3-(fluoromethyl)-6,6-dimethyl-1,1-dioxido-3,6-dihydro-2H-1,4-thiazin-3-yl)-4-fluorophenyl)-3,5-difluoro-2-pyridinecarboxamide], the IC50 is above 400 µM on Cathepsin D (Cat D), 0.0016 µM in experiment [1] and 0.018 µM in experiment [2].

Turning to `CC1(C)C(N)=N[C@](CF)(c2cc(NC(=O)c3ncc(C(F)(F)F)cc3Cl)ccc2F)CS1(=O)=O` [Example 379, N-(3-((3S)-5-amino-3-(fluoromethyl)-6,6-dimethyl-1,1-dioxido-3,6-dihydro-2H-1,4-thiazin-3-yl)-4-fluorophenyl)-3-chloro-5-(trifluoromethyl)-2-pyridinecarboxamide], the IC50 at Cathepsin D (Cat D) was found to be 775 µM; in experiment [1], 0.00099 µM; in experiment [2], 0.0115 µM.

Turning to `CC1(C)C(N)=N[C@](CF)(c2cc(NC(=O)c3ncc(Cl)nc3Cl)ccc2F)CS1(=O)=O` [Example 380, N-(3-((3S)-5-amino-3-(fluoromethyl)-6,6-dimethyl-1,1-dioxido-3,6-dihydro-2H-1,4-thiazin-3-yl)-4-fluorophenyl)-3,5-dichloro-2-pyrazinecarboxamide], the half-inhibitory concentration (IC50) at Cathepsin D (Cat D) came to 282 µM; in experiment [1] it was 0.0018 µM; in experiment [2], 0.999 µM.

For `C=Cc1cc(Cl)cnc1C(=O)Nc1ccc(F)c([C@]2(CF)CS(=O)(=O)C(C)(C)C(N)=N2)c1` [Example 381, N-(3-((3S)-5-amino-3-(fluoromethyl)-6,6-dimethyl-1,1-dioxido-3,6-dihydro-2H-1,4-thiazin-3-yl)-4-fluorophenyl)-5-chloro-3-ethenyl-2-pyridinecarboxamide], the IC50 at Cathepsin D (Cat D) stood at 194 µM; in experiment [1], 0.00086 µM; in experiment [2] it was 0.0539 µM.

Regarding `COc1cc(Cl)cnc1C(=O)Nc1ccc(F)c([C@]2(CF)CS(=O)(=O)C(C)(C)C(N)=N2)c1` [Example 382, N-(3-((3S)-5-amino-3-(fluoromethyl)-6,6-dimethyl-1,1-dioxido-3,6-dihydro-2H-1,4-thiazin-3-yl)-4-fluorophenyl)-5-chloro-3-methoxy-2-pyridinecarboxamide], the figures for the IC50 (at Cathepsin D (Cat D); in experiment [1]; in experiment [2]) were above 400 µM, 0.0018 µM and 0.0173 µM, respectively.

Turning to `CC1(C)C(N)=N[C@](CF)(c2cc(NC(=O)c3ccc(C(F)(F)F)cn3)ccc2F)CS1(=O)=O` [Example 383, N-(3-((3S)-5-amino-3-(fluoromethyl)-6,6-dimethyl-1,1-dioxido-3,6-dihydro-2H-1,4-thiazin-3-yl)-4-fluorophenyl)-5-(trifluoromethyl)-2-pyridinecarboxamide], the values for the half-maximal inhibitory concentration (IC50) (at Cathepsin D (Cat D); in experiment [1]; in experiment [2]) were 217 µM, 0.00262 µM and 0.02 µM, respectively.
